Reference: patent US20100260772A1, “METHODS FOR TREATING OR PREVENTING DISEASES ASSOCIATED WITH LOW BONE MASS” (THE TRUSTEES OF COLUMBIA UNIVERSITY IN THE CITY OF NEW YORK, priority 2007, published 2010)

Key:
[1] = system: Tph2 expression in brainstem; test: Leptin injection, Tph2 expression in brainstem; type: in vivo, mice
[2] = system: neuropeptides Y (Npy), a leptin target gene in arcuate neurons; test: Leptin injection, Npy expression (internal control); type: in vivo, mice; conditions: same leptin injection
From the text: Next, we injected i.p […] of leptin and studied its effects on Tph2 expression 4 and […]. We also measured the brain concentration of serotonin in leptin knockouts (ob/ob mice). FIG. 5. […] FIG. 15. […] FIG. 5. […] Serotonin neurons in the brain stem have the ObRb receptors that bind to leptin, and they project to the hypothalamus.

[3] = system: cfos expression in brain stems; test: Leptin injection, cfos expression in brain stem; type: in vivo; conditions: following leptin injection
From the text: We know that expression of the leptin receptor ObRb is not restricted to hypothalamic neurons and can be found in particular in serotonin-producing neurons of the brainstem that also express Tph2. […] This latter result means that leptin's first site of action in the brain is not, at least as far as controlling bone mass is concerned, the hypothalamus but rather the brainstem where serotonergic neurons are localized.

leptin: endogenous polypeptide product of an ob gene
Tph2 expression in brain stem (in words) ([1]; leptin injection (ICV, FIG. 7)): decreases Tph2 expression
decrease of Tph2 expression in brainstem ([1]; leptin injection i.c.v., FIG. 15): approximately 50%
expression of neuropeptides Y (Npy) [2]: decreased
cfos expression in brain stems [3]: increased cfos expression
